# Test results: patent US10113147B2, “Method for producing megakaryocytes, platelets and/or thrombopoietin using mesenchymal cells” (AdipoSeeds, Inc., priority 2013, dated 2018)
# Structures can show the parent of a compound that is named as a salt.
# Tests used:
# Assay type in all cases: cell-based
# mouse preadipocytes [1] = assay: Identification of megakaryocyte/platelet production inducing substance (CD41 flow cytometry); settings: reagent added alone to basic medium, Day 7
# Protocol: In order to identify an important factor(s) for inducing production of megakaryocytes/platelets from preadipocytes, mediums were prepared by separately adding individual reagents contained in a differentiation-inducing medium (MKLI medium) for megakaryocytes/platelets, to a basic medium (IMDM medium containing 2 mM L-glutamine, a 100 U/mL penicillin-streptomycin solution, and nucleotides (ATP, UTP, GTP, and CTP, 20 μM for each)). More specifically, five types of mediums were prepared by adding 0.5% bovine serum albumin, 10 μg/mL insulin, 4 μg/mL LDL cholesterol, 200 μg/mL iron-saturated transferrin (iron-bound transferrin) and 50 μM 2-β-mercaptoethanol, respectively, to the basic mediums (FIG. 5). Mouse preadipocytes maintenance-cultured in accordance with the method of Example 1 were cultured in the above five types of mediums and in the basic medium, i.e., in total 6 types of medium (FIG. 5) for 7 days.
# The mouse preadipocytes on Day 7 after culture in each of the mediums were directly labeled with a FITC-labeled anti-CD41 antibody and analyzed by flow cytometry.
# human preadipocytes [2] = assay: TPO production at different iron-bound transferrin concentrations; settings: for TPO: Day 4
# mouse preadipocytes [3] = assay: CD41-positive ratio of sorted adipose tissue-derived cell fractions cultured with iron-bound transferrin; settings: CD31 negative, 200 μg/mL, Day 5
# Protocol: A subcutaneous adipose tissue was isolated from a mouse. To this, collagenase was added. The mixture was incubated at 37° C. for one hour and centrifuged to obtain a cell layer as a lower layer. Thereafter, these cells were labeled with a fluorescence-labeled anti-CD45 antibody (manufactured by BD Bioscience), a fluorescence-labeled anti-Ter119 antibody (manufactured by BD Bioscience) and 7AAD (manufactured by BD Bioscience), and fluorescence was measured by flow cytometry. Of the cells shown in FIG. 7, upper right panel, cells of CD45 negative, Ter119 negative and 7-AAD negative (cells under the line at the center of the upper right panel of FIG. 7) were separately taken. CD45 is known as a marker of hematopoietic cells (leucocytes, lymphocytes, eosinophils, monocytes, basophils, and neutrophils) excluding erythrocytes and platelets. Ter119 is known as a marker of mature erythrocytes and erythroid progenitor cells. 7-AAD (7-amino-actinomycin D) is known as a marker of dead cells.
# Subsequently, CD45 negative, Ter119 negative and 7-AAD negative cells separately taken were labeled with a fluorescence-labeled anti-CD31 antibody (manufactured by BD Bioscience) and fluorescent was measured by flow cytometry. Of the cells shown in the lower left panel of FIG. 7, CD31 negative cells (cells under the line of the center of the lower left panel of FIG. 7) were separately taken. […]
# Subsequently, the cells (CD45 negative, Ter119 negative, 7-AAD negative and CD31 negative) previously separately taken were labeled with a fluorescence-labeled anti-c-MPL antibody (manufactured by BD Bioscience) and a fluorescence-labeled anti-CD71 antibody (manufactured by BD Bioscience), and fluorescence was measured by flow cytometry. […]
# The cells shown in individual portions of the left panel of FIG. 8 were separately cultured in a medium prepared by adding 200 μg/mL iron-bound transferrin to the basic medium described in Example 3. The ratio (%) of CD41 (specific marker of megakaryocytes/platelets)-positive cells in the cells on Day 5 after initiation of culture was determined. […]
# human preadipocytes [4] = assay: Ratio of CD41-positive cells at different iron-bound transferrin concentrations; settings: Day 4
# Protocol: Human preadipocytes maintenance-cultured in accordance with the method of Example 1 were prepared and cultured in mediums prepared by adding iron-bound transferrin samples different in concentration to the basic medium described in Example 3. The ratio (%) of CD41 (specific marker of megakaryocytes and platelets)-positive cells in the cells on Day 4 after initiation of the culture was determined.
# preadipocytes [5] = assay: Effect of iron chelator and apo-transferrin on ratio of CD41-positive cells; settings: Day 4
# Protocol: To investigate effect of an iron ion on induction of preadipocytes into megakaryocytes/platelets, analysis using the preadipocytes was made. Specifically, a medium (basic medium+iron-bound transferrin+Desferal (deferoxamine mesylate)) was prepared by adding an iron chelator, Desferal (deferoxamine mesylate, manufactured by Novartis Pharma K. K.) to a basic medium containing 200 μg/mL iron-bound transferrin, or a medium (basic medium+apo-transferrin) was prepared by adding a non-iron-bound transferrin, apo-transferrin (manufactured by Athens Research and Technology) to a basic medium alone. Cells were cultured in these mediums and the ratio (%) of CD41 (specific marker of megakaryocytes and platelets)—positive cells in the cells on Day 4 after the culture was determined. The results of Desferal (deferoxamine mesylate) addition are shown in Table 3; whereas the results of apo-transferrin addition are shown in Table 4.
# preadipocytes [6] = assay: CD71 knock-down by siRNA: TPO in culture supernatant by ELISA
# Protocol: A medium was prepared by removing bovine serum albumin, insulin, LDL cholesterol and 2-β-mercaptoethanol from MKLI medium. The medium is the same as a medium (“basic medium+transferrin”), which is prepared by adding 200 μg/mL iron-bound transferrin to a medium (of MKLI medium) corresponding to a basic medium (a medium prepared by adding, to Iscove's Modified Dulbecco's Medium, IMDM), 2 mM L-glutamine, a 100 U/mL penicillin-streptomycin solution, and nucleotides (ATP, UTP, GTP, and CTP, 20 μM for each) and corresponding to a medium prepared by adding 200 μg/mL iron-bound transferrin to “the particularly preferable basic medium in the present invention” described in the detailed description of the present application. To preadipocytes, a gene of siRNA of transferrin receptor CD71 (siRNA-CD71) (the sequence of a sense strand is represented by SEQ. ID No. 1, whereas the sequence of the antisense strand is represented by SEQ. ID No. 2) or a scrambled oligo (negative control) (the sequence of a sense strand is represented by SEQ. ID No. 3, whereas the sequence of the antisense strand is represented by SEQ. ID No. 4) was introduced. The resultant preadipocytes were cultured in the aforementioned “basic medium+transferrin”. TPO in each of the culture supernatants was measured by ELISA quantitation using the TPO Quantikine ELISA kit (manufactured by R&D Systems). In Table 6, “unmeasurable” means that measurement values are equivalent to the value of the background. As is apparent from Table 6, TPO was secreted from preadipocytes using the scrambled oligo, whereas TPO was not secreted from preadipocytes in which transferrin receptor CD71 was knocked down by siRNA.
# [7] = system: transferrin receptor CD71; assay: CD71 knock-down by siRNA: CD71 % in human preadipocytes
# From the text: (§1) In consideration of the results, whether a transferrin receptor CD71 knock-down preadipocytes have differentiation potency to megakaryocytes and platelets or not was checked. To human preadipocytes, a gene of siRNA of CD71 (siRNA-CD71) (the sequence of a sense strand is represented by SEQ. ID No. 1, whereas the sequence of the antisense strand is represented by SEQ. ID No. 2) or a scrambled oligo (negative control) (the sequence of a sense strand is represented by SEQ. ID No. 3, whereas the sequence of the antisense strand is represented by SEQ. ID No. 4) was introduced. Forty eight hours later, the human preadipocytes were cultured in a medium prepared by adding transferrin alone to the basic medium, for four days.
# (§2) Human preadipocytes on Day 4 after culture were directly labeled with a FITC-labeled anti-CD41 antibody and analyzed by flow cytometry. As a result, production of megakaryocytes and platelets was not observed in CD71 knock-down human preadipocytes (Table 1).
# [8] = system: transferrin receptor CD71; assay: CD71 knock-down by siRNA: CD71 % (Example 11)
# human preadipocytes [9] = assay: CD71 knock-down by siRNA: CD41-positive cells by flow cytometry
# From the text: as §1, §2
# [10] = system: mouse hematopoietic stem cells; assay: Differentiation of hematopoietic stem cells into megakaryocytes/platelets
# From the text: Activity of TPO secreted during the process of producing megakaryocytes/platelets from preadipocytes was investigated based on the presence or absence of differentiation-inducing property of mouse hematopoietic stem cells into megakaryocytes/platelets when TPO was used. Whether platelets are produced or not was checked based on the shape analyzed by an optical microscope and flow-cytometric expression analysis of platelet specific marker CD41.
# [11] = iron-bound transferrin 25 μg/mL in basic medium
# [12] = iron-bound transferrin 50 μg/mL in basic medium
# [13] = iron-bound transferrin 100 μg/mL in basic medium
# [14] = iron-bound transferrin 200 μg/mL in basic medium
# [15] = iron-bound transferrin 400 μg/mL in basic medium
# [16] = Day 0 (48 hours after siRNA introduction)
# [17] = Day 2, basic medium+transferrin
# [18] = Day 4, basic medium+transferrin
# [19] = Day 4 of culture in basic medium + transferrin
molecule,measurement,setting,value
Iron-bound transferrin: holo-transferrin formed by binding an apo-transferrin to an iron ion; manufactured by Sigma,cells expressing CD41,mouse preadipocytes [1],observed
same,TPO,human preadipocytes [2]; [11],Below
same,decrease of concentration of TPO produced compared to the case of 200 μg/mL,human preadipocytes [2]; iron-bound transferrin 50 μg/mL,about 25%
same,TPO,human preadipocytes [2]; [12],7.5 ± 1.1 pg/mL
same,TPO,human preadipocytes [2]; [13],10.8 ± 3.5 pg/mL
same,TPO,human preadipocytes [2]; [14],10 ± 2.4 pg/mL
same,TPO,human preadipocytes [2]; [15],Below
same,ratio (%) of CD41-positive cells,"mouse preadipocytes [3]; c-MPL negative, CD71 negative preadipocytes",10.8%
same,ratio (%) of CD41-positive cells,"mouse preadipocytes [3]; c-MPL negative, CD71 positive preadipocytes",26.9%
same,ratio (%) of CD41-positive cells,"mouse preadipocytes [3]; c-MPL positive, CD71 positive preadipocytes",62.3%
same,CD41 (%),human preadipocytes [4]; [11],15.5 ± 9.2%
same,CD41 (%),human preadipocytes [4]; [12],18 ± 9.9%
same,CD41 (%),human preadipocytes [4]; [13],17.5 ± 9.2%
same,CD41 (%),human preadipocytes [4]; [14],19 ± 8.5%
same,CD41 (%),human preadipocytes [4]; [15],11 ± 7.1%
"CC(=O)N(O)CCCCCNC(=O)CCC(=O)N(O)CCCCCNC(=O)CCC(=O)N(O)CCCCCN [Desferal, deferoxamine mesylate]",CD41 (%),preadipocytes [5]; Desferal 0.005 mg/mL in basic medium + 200 μg/mL iron-bound transferrin,36 ± 11.3%
same,CD41 (%),preadipocytes [5]; Desferal 0.05 mg/mL in basic medium + 200 μg/mL iron-bound transferrin,35.5 ± 10.6%
same,CD41 (%),preadipocytes [5]; Desferal 0.5 mg/mL in basic medium + 200 μg/mL iron-bound transferrin,14 ± 5.7%
same,CD41 (%),preadipocytes [5]; Desferal 5 mg/mL in basic medium + 200 μg/mL iron-bound transferrin,10.5 ± 6.4%
same,CD41 (%),preadipocytes [5]; Desferal 50 mg/mL in basic medium + 200 μg/mL iron-bound transferrin,5 ± 2.8%
"siRNA-CD71: siRNA of transferrin receptor CD71; sense strand SEQ. ID No. 1, antisense strand SEQ. ID No. 2 (sense GAACUUGAAACUGCGUAAATT; antisense UUUACGCAGUUUCAAGUUCTT; chemistry not given here) [siRNA of transferrin receptor CD71; ID No. 2]",TPO,preadipocytes [6]; [16],Unmeasurable
same,TPO,preadipocytes [6]; [17],Unmeasurable
same,TPO,preadipocytes [6]; [18],Unmeasurable
same,CD71 %,[7]; [16],5.7 ± 0.2%
same,CD71 %,[7]; [19],7.5 ± 0.7%
same,CD71 %,[8]; [16],5.7 ± 0.2%
same,CD71 %,[8]; [17],13.7 ± 0.6%
same,CD71 %,[8]; [18],7.5 ± 0.7%
same,CD41 (%),human preadipocytes [9]; [16],0.1> %
same,CD41 (%),human preadipocytes [9]; [19],0.1> %
OCCS [2-β-mercaptoethanol],cells expressing CD41,mouse preadipocytes [1],not observed
"insulin: insulin, 10 μg/mL added to basic medium",cells expressing CD41,mouse preadipocytes [1],not observed
"Apo-transferrin: non-iron-bound transferrin, manufactured by Athens Research and Technology",CD41 (%),preadipocytes [5]; apo-transferrin 200 μg/mL added to basic medium alone,16.5 ± 4.95%
same,CD41 (%),preadipocytes [5]; apo-transferrin 400 μg/mL added to basic medium alone,14.5 ± 3.54%
"TPO: thrombopoietin purchased from Stem Cell Technologies, 50 ng/mL in MKLI medium",platelet production,[10]; Day 2 and Day 8 after initiation of culture,slightly produced
same,ratio of CD41 positive cells,"[10]; Day 8, 1.26% before culture, supernatant TPO 43.1±4.9 pg/mL, purchased TPO 50 ng/mL in MKLI medium",5.56%
